Experimental data as given in patent US5430062A, “Stilbene derivatives as anticancer agents” (priority 1993, dated 1995).
pIC50: −log10 of the molar value. Values joined by “and” are separate entries in the source; they are usually repeats but may differ in a detail not shown here. Identical values can stand only once. Like-named read-outs stand apart in the source and are kept apart here.

How the values were obtained:
SK-MEL-2 melanoma = assay: Cytotoxicity, SK-MEL-2; format: cell-based; conditions: Homo sapiens, read-out: Log10 GI50, SK-MEL-2 (converted)
Excerpt: (§1) A total of 55 cell lines from the leukemia, non-small cell lung cancer, small cell lung cancer, colon cancer, CNS cancer, melanoma, ovarian cancer, and renal cancer panels were examined.

OVCAR-8 ovarian cancer = assay: Cytotoxicity, OVCAR-8; format: cell-based; conditions: Homo sapiens, read-out: Log10 GI50, OVCAR-8 (converted)
Excerpt: as §1

SN12C renal cancer = assay: Cytotoxicity, SN12C; format: cell-based; conditions: Homo sapiens, read-out: Log10 GI50, SN12C (converted)
Excerpt: as §1

HL-60 (TB) leukemia = assay: Cytotoxicity, HL-60(TB) leukemia; conditions: read-out: cytotoxicity GI50, HL-60(TB); 50% growth inhibition; average of two determinations; 8640 min; Hydrochloride, 8640 min
[1] = tested on: NCI-H460 non-small cell lung cancer; assay: Cytotoxicity, NCI-H460; format: cell-based; conditions: Homo sapiens, read-out: Log10 GI50, NCI-H460 (converted)
Excerpt: as §1

DLD-1 colon cancer = assay: Cytotoxicity, DLD-1; format: cell-based; conditions: Homo sapiens, read-out: Log10 GI50, DLD-1 (converted)
Excerpt: as §1

RXF-393 renal cancer = assay: Cytotoxicity, RXF-393; format: cell-based; conditions: Homo sapiens, read-out: Log10 GI50, RXF-393 (converted)
Excerpt: as §1

[2] = tested on: EKCK non-small cell lung cancer; assay: Cytotoxicity, EKCK; format: cell-based; conditions: read-out: Log10 GI50, EKCK (converted)
Excerpt: as §1

SF-295 CNS cancer = assay: Cytotoxicity, SF-295
U251 CNS cancer = assay: Cytotoxicity, U251; format: cell-based; conditions: Homo sapiens, U-251; read-out: Log10 GI50, U251 (converted)
Excerpt: as §1

LOX IMVI melanoma = assay: Cytotoxicity, LOX IMVI; format: cell-based; conditions: Homo sapiens, read-out: Log10 GI50, LOX IMVI (converted)
Excerpt: as §1

MOLT-4 leukemia = assay: Cytotoxicity, MOLT-4; format: cell-based; conditions: Homo sapiens, read-out: Log10 GI50, MOLT-4 (converted)
Excerpt: as §1

HT29 colon cancer = assay: Cytotoxicity, HT29 (Table XI panel); format: cell-based; conditions: Homo sapiens, HT-29; read-out: Log10 GI50, HT29 (converted)
Excerpt: as §1

[3] = tested on: DMS 273 small cell lung cancer; assay: Cytotoxicity, DMS 273; conditions: Hydrochloride
tubulin = assay: Inhibition of tubulin polymerization (turbidimetry); format: biochemical, bovine; conditions: Hydrochloride
SNB-75 CNS cancer = assay: Cytotoxicity, SNB-75; format: cell-based; conditions: Homo sapiens, read-out: Log10 GI50, SNB-75 (converted)
Excerpt: as §1

XF498 CNS cancer = assay: Cytotoxicity, XF498; format: cell-based; conditions: Homo sapiens, read-out: Log10 GI50, XF498 (converted)
Excerpt: as §1

SF-268 CNS cancer = assay: Cytotoxicity, SF-268; format: cell-based; conditions: Homo sapiens, SF-268, read-out: Log10 GI50, SF-268 (converted)
Excerpt: as §1

M19-MEL melanoma = assay: Cytotoxicity, M19-MEL; format: cell-based; conditions: Homo sapiens, read-out: Log10 GI50, M19-MEL (converted)
Excerpt: as §1

ACHN renal cancer = assay: Cytotoxicity, ACHN; format: cell-based
Excerpt: as §1

IGROVI ovarian cancer = assay: Cytotoxicity, IGROVI; format: cell-based; conditions: read-out: Log10 GI50, IGROVI (converted)
Excerpt: as §1

SF-539 CNS cancer = assay: Cytotoxicity, SF-539; format: cell-based; conditions: Homo sapiens, read-out: Log10 GI50, SF-539 (converted)
Excerpt: as §1

[4] = tested on: HOP-18 non-small cell lung cancer; assay: Cytotoxicity, HOP-18; format: cell-based; conditions: Homo sapiens, read-out: Log10 GI50, HOP-18 (converted)
Excerpt: as §1

SMILES: COc1cc(CNc2ccc(C)cc2)cc(OC)c1OC.Cl [110a, 4-Methyl-N-(3,4,5-trimethoxybenzyl)aniline Hydrochloride]
- GI50 (SK-MEL-2 melanoma): 132 nM
- GI50 (OVCAR-8 ovarian cancer): 759 nM
- GI50 (SN12C renal cancer): 851 nM
- GI50 (HL-60 (TB) leukemia): 72.2 nM
- GI50 [1]: 214 nM
- GI50 (DLD-1 colon cancer): 575 nM
- GI50 (RXF-393 renal cancer): 112 nM
- GI50 [2]: 741 nM
- Log10 GI50, SF-295 (SF-295 CNS cancer): -6.49
- GI50 (SF-295 CNS cancer; read-out: cytotoxicity GI50, SF-295, 50% growth inhibition, average of two determinations, 8640 min, Hydrochloride, 8640 min): 233 nM
- GI50 (U251 CNS cancer): 331 nM
- GI50 (LOX IMVI melanoma): 851 nM
- GI50 (MOLT-4 leukemia): 427 nM
- GI50 (HT29 colon cancer): 347 nM
- Log10 GI50, DMS 273 [3]: < -7.00 and -7.03
- GI50 ([3]; read-out: cytotoxicity GI50, DMS 273, 50% growth inhibition, average of two determinations, 8640 min, 8640 min): 104 nM
- pIC50 (tubulin; Table X, different glutamate preparation (1M monosodium glutamate and GTP), read-out: inhibn of tubulin polymn IC50 (±SD)): 5.46
- pIC50 (tubulin; benzylanilines, Table X series, read-out: tubulin polymerization IC50): 5.46
- GI50 (SNB-75 CNS cancer): 389 nM
- GI50 (XF498 CNS cancer): 468 nM
- GI50 (SF-268 CNS cancer): 912 nM
- GI50 (M19-MEL melanoma): 331 nM
- GI50 (ACHN renal cancer; Homo sapiens, ACHN, read-out: Log10 GI50, ACHN (converted)): < 100 nM
- Log10 GI50, ACHN (ACHN renal cancer; Hydrochloride): -7.01
- GI50 (IGROVI ovarian cancer): 708 nM
- GI50 (SF-539 CNS cancer): 316 nM
- GI50 [4]: 37200 nM
